Results as given in patent US12252488B2 (Nimbus Saturn, Inc., priority 2021, dated 2025).

Target: T1, HPK1 (Homo sapiens, UniProt Q92918)
T1 construct: purchased Invitrogen
Test: HPK1 biochemical enzyme assay (microfluidic mobility shift assay)
Settings: 1000 uM (1 mM) ATP; Caliper mobility shift; 1.5 nM HPK1; 30 min preincubation; read-out: HPK1 1000UMATP caliper IC50
How it was run: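 IC50 values, grouped into activity categories, come from 10-point titrations (top final 3 μM) preincubated 30 min with 1.5 nM enzyme and substrate at pH 7.4. ATP (1 mM), substrate (1 μM) and MgCl2 (5 mM) then added; after 60 min at RT, product separated by microfluidic mobility shift.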

T1 sequence (Q92918 whole entry): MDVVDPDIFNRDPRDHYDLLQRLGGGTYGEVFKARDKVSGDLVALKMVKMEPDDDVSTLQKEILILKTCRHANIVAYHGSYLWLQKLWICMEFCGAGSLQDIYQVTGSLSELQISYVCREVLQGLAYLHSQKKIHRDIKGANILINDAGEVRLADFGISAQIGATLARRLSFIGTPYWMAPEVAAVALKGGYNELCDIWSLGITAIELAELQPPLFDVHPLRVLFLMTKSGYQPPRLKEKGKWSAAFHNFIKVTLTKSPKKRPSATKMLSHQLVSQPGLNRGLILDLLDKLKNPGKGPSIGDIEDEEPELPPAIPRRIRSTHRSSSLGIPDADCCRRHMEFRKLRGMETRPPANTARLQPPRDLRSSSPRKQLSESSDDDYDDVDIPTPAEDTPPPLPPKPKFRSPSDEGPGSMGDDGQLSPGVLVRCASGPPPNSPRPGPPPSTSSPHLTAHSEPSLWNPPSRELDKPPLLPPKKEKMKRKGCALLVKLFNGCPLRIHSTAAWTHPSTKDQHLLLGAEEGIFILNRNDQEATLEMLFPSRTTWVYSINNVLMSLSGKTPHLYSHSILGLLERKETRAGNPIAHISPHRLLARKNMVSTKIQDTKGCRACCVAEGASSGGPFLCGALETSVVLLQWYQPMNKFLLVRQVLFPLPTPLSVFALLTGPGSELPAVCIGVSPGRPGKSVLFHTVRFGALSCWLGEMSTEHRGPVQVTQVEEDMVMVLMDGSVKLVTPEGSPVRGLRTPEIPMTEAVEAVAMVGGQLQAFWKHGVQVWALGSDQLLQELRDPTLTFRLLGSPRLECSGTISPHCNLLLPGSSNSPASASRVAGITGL

| IC50 | SMILES |
| --- | --- |
| ≤ 100 nM | O=C(c1ccc(-c2cc(Nc3ccc(N4CCC(O)CC4)cn3)c3c(=O)[nH]ccc3n2)c(F)c1)N1CCC(O)CC1 [I-140, 2-[2-fluoro-4-(4-hydroxy-piperidine-1-carbonyl)phenyl]-4-[[5-(4-hydroxy-1-piperidyl)-2-pyridyl]amino]-6H-1,6-naphthyridin-5-one] |
| > 1000 nM | O=C(c1ccc(-c2cc(Nc3ccc(N4CCC(O)CC4)cn3)c3c(=O)[nH]ccc3n2)c(F)c1)N1CCCCC1CO (centres unmarked) [I-141, 2-[2-fluoro-4-[2-(hydroxy-methyl)piperidine-1-carbonyl]phenyl]-4-[[5-(4-hydroxy-1-piperidyl)-2-pyridyl]amino]-6H-1,6-naphthyridin-5-one] |
| ≤ 100 nM | O=C(c1ccc(-c2cc(Nc3ccc(N4CCC(O)CC4)cn3)c3c(=O)[nH]ccc3n2)c(F)c1)N1CC2CCC(C1)O2 [I-142, 2-[2-fluoro-4-(8-oxa-3-azabicyclo [3.2.1]octane-3-carbonyl)phenyl]-4-[[5-(4-hydroxy-1-piperidyl)-2-pyridyl]amino]-6H-naphthyridin-5-one] |
| > 1000 nM | CN(C(=O)c1ccc(-c2cc(Nc3ccc(N4CCC(O)CC4)cn3)c3c(=O)[nH]ccc3n2)c(F)c1)C1CCCCC1 [I-143, N-cyclohexyl-3-fluoro-4-[4-[[5-(4-hydroxy-1-piperidyl)-2-pyridyl]amino]-5-oxo-6H-1,6-naphthyridin-2-yl]-N-methyl-benzamide] |
| > 1000 nM | O=c1[nH]ccc2nc(N3CCC3)cc(Nc3ccc(N4CCC(O)CC4)cn3)c12 [I-144, 2-(azetidin-1-yl)-4-[[5-(4-hydroxy-1-piperidyl)-2-pyridyl]amino]-6H-1,6-naphthyridin-5-one] |
| > 1000 nM | O=C(c1ccc(-c2cc(Nc3ccc(N4CCC(O)CC4)cn3)c3c(=O)[nH]ccc3n2)c(F)c1)N1CCCC(O)C1 (centres unmarked) [I-145, 2-[2-fluoro-4-(3-hydroxy-piperidine-1-carbonyl)phenyl]-4-[[5-(4-hydroxy-1-piperidyl)-2-pyridyl]amino]-6H-1,6-naphthyridin-5-one] |
| 100 to 1000 nM | Cc1c[nH]c(=O)c2c(Nc3ccc(N4CCC(O)CC4)cn3)cc(-c3ccc(C(=O)N4CCCCC4)cc3F)nc12 [I-146, 2-[2-fluoro-4-(piperidine-1-carbonyl)phenyl]-4-[[5-(4-hydroxy-1-piperidyl)-2-pyridyl]amino]-8-methyl-6H-1,6-naphthyridin-5-one] |
| 100 to 1000 nM | O=C(c1ccc(-c2cc(Nc3ccc(N4CCC(O)CC4)cn3)c3c(=O)[nH]ccc3n2)c(F)c1)N1CCCC1CO (centres unmarked) [I-147, 2-[2-fluoro-4-[2-(hydroxy-methyl)pyrrolidine-1-carbonyl]phenyl]-4-[[5-(4-hydroxy-1-piperidyl)-2-pyridyl]amino]-6H-1,6-naphthyridin-5-one] |
| > 1000 nM | O=C(c1ccc(-c2cc(Nc3ccc(N4CCC5(CCOCC5)CC4)cn3)c3c(=O)[nH]ccc3n2)c(F)c1)N1CCCCC1 [I-148, 2-[2-fluoro-4-(piperidine-1-carbonyl)phenyl]-4-[[5-(3-oxa-9-azaspiro [5.5]undecan-9-yl)-2-pyridyl]amino]-6H-naphthyridin-5-one] |
| 100 to 1000 nM | CC(C)(C#N)c1ccc(-c2cc(Nc3ccc(N4CCC(O)CC4)cn3)c3c(=O)[nH]ccc3n2)c(F)c1 [I-149, 2-[3-fluoro-4-[4-[[5-(4-hydroxy-1-piperidyl)-2-pyridyl]amino]-5-oxo-6H-1,6-naphthyridin-2-yl]phenyl]-2-methyl-propane-nitrile] |
| 100 to 1000 nM | O=c1[nH]ccc2nc(-c3cc(CN4CCCCC4)ccc3F)cc(Nc3ccc(N4CCC(O)CC4)cn3)c12 [I-150, 2-[2-fluoro-5-(1-piperidyl-methyl)phenyl]-4-[[5-(4-hydroxy-1-piperidyl)-2-pyridyl]amino]-6H-1,6-naphthyridin-5-one] |
| 100 to 1000 nM | O=C(Nc1ccc(-c2cc(Nc3ccc(N4CCC(O)CC4)cn3)c3c(=O)[nH]ccc3n2)c(F)c1)C1CCC1 [I-152, N-[3-fluoro-4-[4-[[5-(4-hydroxy-1-piperidyl)-2-pyridyl]amino]-5-oxo-6H-1,6-naphthyridin-2-yl]phenyl] cyclobutane-carboxamide] |
| 100 to 1000 nM | CC1(C(=O)Nc2ccc(-c3cc(Nc4ccc(N5CCC(O)CC5)cn4)c4c(=O)[nH]ccc4n3)c(F)c2)CC1 [I-153] |
| 100 to 1000 nM | O=C(Nc1ccc(-c2cc(Nc3ccc(N4CCC(O)CC4)cn3)c3c(=O)[nH]ccc3n2)c(F)c1)C1CCCC1 [I-154, N-[3-fluoro-4-[4-[[5-(4-hydroxy-1-piperidyl)-2-pyridyl]amino]-5-oxo-6H-1,6-naphthyridin-2-yl]phenyl] cyclo-pentane carboxamide] |
| > 1000 nM | O=C(c1ccc(-c2cc(Nc3ccc(N4CCOCC4)cn3)c3c(=O)[nH]ccc3n2)c(F)c1)N1CCCCC1 [I-155, 2-[2-fluoro-4-(piperidine-1-carbonyl)phenyl]-4-[(5-morpholino-2-pyridyl)amino]-6H-1,6-naphthyridin-5-one] |
| > 1000 nM | COc1cc(-c2cc(Nc3ccc(N4CCNCC4)cn3)c3c(=O)[nH]ccc3n2)c(F)cc1C(=O)N1CCCCC1 [I-157] |
| ≤ 100 nM | Cc1c[nH]c(=O)c2c(Nc3ccc(N4CCC(O)CC4)cn3)cc(-c3ccc(NC(=O)C4CCCCC4)cc3F)nc12 [I-158, N-[3-fluoro-4-[4-[[5-(4-hydroxy-1-piperidyl)-2-pyridyl]amino]-8-methyl-5-oxo-6H-1,6-naphthyridin-2-yl]phenyl] cyclohexane carboxamide] |
| ≤ 100 nM | O=C(Nc1ccc(-c2cc(Nc3ccc(N4CCOCC4)cn3)c3c(=O)[nH]ccc3n2)c(F)c1)C1CCCCC1 [I-159, N-[3-fluoro-4-[4-[(5-morpholino-2-pyridyl)amino]-5-oxo-6H-1,6-naphthyridin-2-yl]phenyl] cyclohexane carboxamide] |
| ≤ 100 nM | O=C(Nc1ccc(-c2cc(Nc3ccc(C(=O)N4CCCC4)cc3)c3c(=O)[nH]ccc3n2)c(F)c1)C1CCCCC1 [I-160, N-[3-fluoro-4-[5-oxo-4-[4-(pyrrolidine-1-carbonyl)anilino]-6H-1,6-naphthyridin-2-yl]phenyl] cyclohexane carboxamide] |
| > 1000 nM | COc1cc(-c2cc(Nc3ccc(N4CCC(O)CC4)cn3)c3c(=O)[nH]cc(C)c3n2)c(F)cc1C(=O)N1CCCCC1 [I-163, 2-[2-fluoro-5-methoxy-4-(piperidine-1-carbonyl)phenyl]-4-[[5-(4-hydroxy-1-piperidyl)-2-pyridyl]amino]-8-methyl-6H-1,6-naphthyridin-5-one] |
| ≤ 100 nM | COc1cc(-c2cc(Nc3ccc(N4CCOCC4)cn3)c3c(=O)[nH]ccc3n2)c(F)cc1C(=O)N1CCCCC1 [I-164, 2-[2-fluoro-5-methoxy-4-(piperidine-1-carbonyl)phenyl]-4-[(5-morpholino-2-pyridyl)amino]-6H-1,6-naphthyridin-5-one] |
| 100 to 1000 nM | COc1cc(-c2cc(Nc3ccc(C(=O)N4CCCC4)cc3)c3c(=O)[nH]ccc3n2)c(F)cc1C(=O)N1CCCCC1 [I-165, 2-[2-fluoro-5-methoxy-4-(piperidine-1-carbonyl)phenyl]-4-[4-(pyrrolidine-1-carbonyl)amino]-6H-1,6-naphthyridin-5-one] |
| ≤ 100 nM | COc1c(C(=O)N2CCCCC2)ccc(-c2cc(Nc3ccc(N4CCC(O)CC4)cn3)c3c(=O)[nH]ccc3n2)c1F [I-166, 2-[2-fluoro-3-methoxy-4-(piperidine-1-carbonyl)phenyl]-4-[[5-(4-hydroxy-1-piperidyl)-2-pyridyl]amino]-6H-1,6-naphthyridin-5-one] |
